Results reported in US10273217B2, “Triazole derivatives” (Hoffmann-La Roche Inc., priority 2015, dated 2019).

Key:
human EAAT3 = target: T1, human EAAT3 (Homo sapiens, UniProt P43005); test: FLIPR Membrane Potential (FMP) assay, antagonist potency at human EAAT3; type: cell-based; details: HEK-293 cells stably expressing human EAAT3; L-glutamate as agonist at EC80; Kb from IC50 by Cheng-Prusoff equation
T1 construct: expressed in transfected cells
T1 sequence (P43005 1-524): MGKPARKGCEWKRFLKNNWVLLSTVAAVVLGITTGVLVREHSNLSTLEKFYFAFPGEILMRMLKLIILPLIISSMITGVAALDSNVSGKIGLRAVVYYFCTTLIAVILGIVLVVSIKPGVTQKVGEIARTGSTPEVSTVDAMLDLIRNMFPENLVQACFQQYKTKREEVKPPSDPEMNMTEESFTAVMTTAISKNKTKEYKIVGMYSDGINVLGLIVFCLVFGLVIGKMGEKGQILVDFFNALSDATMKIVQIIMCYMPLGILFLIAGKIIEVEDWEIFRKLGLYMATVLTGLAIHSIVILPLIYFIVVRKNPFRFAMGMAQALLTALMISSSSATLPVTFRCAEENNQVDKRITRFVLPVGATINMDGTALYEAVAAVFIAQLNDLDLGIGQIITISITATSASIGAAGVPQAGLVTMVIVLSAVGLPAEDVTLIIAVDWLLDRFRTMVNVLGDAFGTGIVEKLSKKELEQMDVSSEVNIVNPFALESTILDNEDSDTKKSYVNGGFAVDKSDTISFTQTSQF
Protocol: The FLIPR Membrane Potential (FMP) Assay
HEK-293 cells stably expressing human EAAT3 were seeded at 55 000 cells/well in growth medium (DMEM glutamate free (Invitrogen 11960-044), 1% Pen Strep (10 ml/l GIBCO BRL N°15140-023), 10% FCS non dialysed heat inactivated, 5 mg/l puromycin) in poly-D-lysine treated 96-well black microtiter plates with clear-bottom. After 24 h, the growth medium was removed and 100 μl/well of Krebs buffer (140 mM NaCl, 4.7 mM KCl, 2.5 mM CaCl2, 1.2 mM MgCl2, 11 mM HEPES, 10 mM D-glucose, pH=7.4) added. The cells were then loaded by adding 100 μl/well FMP assay dye (FLIPR Membrane Potential assay reagent, Molecular Devices). The 96-well plates were then incubated at 37° C. for 1 h. The depolarization of the cells will cause more dye to enter in the cells, where it will bind to intracellular proteins and lipids and cause an increase in the fluorescence signal. Antagonist potency at human EAAT3 was determined by using L-glutamate as agonist at a concentration which gives 80% of the maximum response. The antagonists were applied 15 min before the application of the agonist L-glutamate. The assays were performed at room temperature and measurements done by using a Fluorometric Imaging Plate Reader (FLIPR, Molecular Devices) and filter #2. Responses were measured as peak increase in fluorescence minus basal (i.e. fluorescence without addition of L-glutamate). Kb was determined using the Cheng-Prusoff equation Kb=IC50/[1+(A/EC50)], where IC50 is the concentration of the antagonist producing 50% inhibition, A is the concentration of the agonist against which the IC50 is being determined (at EC80) and EC50 is the concentration of the agonist producing 50% […].

melting point [°C] | Kb (human EAAT3) [nM] | SMILES
280.5 | 160 | CC(C)(C)NC(=O)c1cc(-c2ccc(C(F)(F)F)cc2)cc(-n2cnnc2C(C)(C)C)c1 [Example 10, N-tert-Butyl-3-(3-tert-butyl-1,2,4-triazol-4-yl)-5-[4-(trifluoromethyl)-phenyl]-benzamide]
204 | 290 | CC(C)(C)NC(=O)c1cc(-c2ccc(F)cc2)cc(-n2cnnc2)c1 [Example 2, N-tert-Butyl-3-(4-fluorophenyl)-5-(1,2,4-triazol-4-yl)-benzamide]
212 | 88 | CCC(C)(C)NC(=O)c1cc(-c2ccc(F)cc2)cc(-n2cnnc2)c1 [Example 1, 3-(4-Fluorophenyl)-N-(2-methylbutan-2-yl)-5-(1,2,4-triazol-4-yl)-benzamide]
136.5 | 290 | CC(C)(C)c1nncn1-c1cc(C(=O)NC(C)(C)C2CC2)cc(-c2ccc(Cl)cc2)c1 [Example 13, 3-(3-tert-Butyl-1,2,4-triazol-4-yl)-5-(4-chlorophenyl)-N-(2-cyclopropylpropan-2-yl)-benzamide]
240.5 | 75 | CC(C)c1nncn1-c1cc(C(=O)NC(C)(C)C)cc(-c2ccc(F)cc2)c1 [Example 14, N-tert-Butyl-3-(4-fluorophenyl)-5-(3-propan-2-yl-1,2,4-triazol-4-yl)-benzamide]
163 | 64 | CC(C)(C)NC(=O)c1cc(-c2ccc(Cl)cc2)cc(-n2cnnc2C(C)(C)O)c1 [Example 27, N-tert-Butyl-3-(4-chlorophenyl)-5-[3-(2-hydroxypropan-2-yl)-1,2,4-triazol-4-yl]-benzamide]
105 | 190 | CC(C)c1nncn1-c1cc(C(=O)NC(C)(C)C2CC2)cc(-c2ccc(Cl)cc2)c1 [Example 17, 3-(4-Chlorophenyl)-N-(2-cyclopropyl-propan-2-yl)-5-(3-propan-2-yl-1,2,4-triazol-4-yl)-benzamide]
106 | 98 | Cc1cc(-c2cc(C(=O)NC(C)(C)C)cc(-n3cnnc3C(C)C)c2)ccc1F [Example 31, N-tert-Butyl-3-(4-fluoro-3-methyl-phenyl)-5-(3-propan-2-yl-1,2,4-triazol-4-yl)-benzamide]
180 | 230 | CC(C)c1nncn1-c1cc(C(=O)NC(C)(C)CO)cc(-c2ccc(Cl)cc2)c1 [Example 21, 3-(4-Chlorophenyl)-N-(1-hydroxy-2-methylpropan-2-yl)-5-(3-propan-2-yl-1,2,4-triazol-4-yl)-benzamide]
135 | 100 | CC(C)c1nncn1-c1cc(C(=O)NC(C)(C)C)cc(-c2ccc(Cl)c(F)c2)c1 [Example 30, N-tert-Butyl-3-(4-chloro-3-fluorophenyl)-5-(3-propan-2-yl-1,2,4-triazol-4-yl)-benzamide]
242.5 | 180 | CC(C)(C)c1nncn1-c1cc(C(=O)NC(C)(C)C2CC2)cc(-c2ccc(C(F)(F)F)cc2)c1 [Example 11, 3-(3-tert-Butyl-1,2,4-triazol-4-yl)-N-(2-cyclopropylpropan-2-yl)-5-[4-(trifluoromethyl)-phenyl]-benzamide]
101 | 100 | CC(C)c1nncn1-c1cc(C(=O)NC(C)(C)C2CC2)cc(-c2ccc(F)cc2)c1 [Example 16, N-(2-Cyclopropylpropan-2-yl)-3-(4-fluorophenyl)-5-(3-propan-2-yl-1,2,4-triazol-4-yl)-benzamide]
239.5 | 75 | CC(C)c1nncn1-c1cc(C(=O)NC(C)(C)C)cc(-c2ccc(Cl)cc2)c1 [Example 15, N-tert-Butyl-3-(4-chlorophenyl)-5-(3-propan-2-yl-1,2,4-triazol-4-yl)-benzamide]
161.5 | 1570 | CC1(NC(=O)c2cc(-c3ccc(Cl)cc3)cc(-n3cnnc3CO)c2)CCS(=O)(=O)C1 (racemic) [Example 36, (RS)-3-(4-Chlorophenyl)-5-[3-(hydroxymethyl)-1,2,4-triazol-4-yl]-N-(3-methyl-1,1-dioxothiolan-3-yl)-benzamide]
290 | 220 | CC(C)c1nncn1-c1cc(C(=O)NC(C)(C)C)cc(-c2ccc(C#N)cc2)c1 [Example 34, N-tert-Butyl-3-(4-cyano-phenyl)-5-(3-propan-2-yl-1,2,4-triazol-4-yl)-benzamide]
235.5 | 160 | Cc1nncn1-c1cc(C(=O)NC(C)(C)C)cc(-c2ccc(F)cc2)c1 [Example 5, N-tert-Butyl-3-(4-fluorophenyl)-5-(3-methyl-1,2,4-triazol-4-yl)-benzamide]
120 | 130 | CC(C)c1nncn1-c1cc(C(=O)NC(C)(C)C)cc(-c2ccc(C3CC3)cc2)c1 [Example 35, N-tert-Butyl-3-(4-cyclopropyl-phenyl)-5-(3-propan-2-yl-1,2,4-triazol-4-yl)-benzamide]
171.5 | 390 | CC(C)c1nncn1-c1cc(C(=O)NC(C)(C)CO)cc(-c2ccc(F)cc2)c1 [Example 20, 3-(4-Fluorophenyl)-N-(1-hydroxy-2-methylpropan-2-yl)-5-(3-propan-2-yl-1,2,4-triazol-4-yl)-benzamide]
107 | 290 | COc1ccc(-c2cc(C(=O)NC(C)(C)C)cc(-n3cnnc3C(C)C)c2)cc1 [Example 29, N-tert-Butyl-3-(4-methoxyphenyl)-5-(3-propan-2-yl-1,2,4-triazol-4-yl)-benzamide]
126 | 130 | CC(C)c1nncn1-c1cc(C(=O)NC(C)(C)C)cc(-c2ccc(C(F)(F)F)cc2)c1 [Example 18, N-tert-Butyl-3-(3-propan-2-yl-1,2,4-triazol-4-yl)-5-[4-(trifluoromethyl)-phenyl]-benzamide]
214 | 330 | CC(C)c1nncn1-c1cc(C(=O)NC(C)(C)CO)cc(-c2ccc(C(F)(F)F)cc2)c1 [Example 22, N-(1-hydroxy-2-methylpropan-2-yl)-3-(3-propan-2-yl-1,2,4-triazol-4-yl)-5-[4-(trifluoromethyl)-phenyl]-benzamide]
100 | 100 | Cc1ccc(-c2cc(C(=O)NC(C)(C)C)cc(-n3cnnc3C(C)C)c2)cc1 [Example 33, N-tert-Butyl-3-(4-methyl-phenyl)-5-(3-propan-2-yl-1,2,4-triazol-4-yl)-benzamide]
115 | 160 | CC(C)c1nncn1-c1cc(C(=O)NC(C)(C)C)cc(-c2ccc(F)c(F)c2)c1 [Example 28, N-tert-Butyl-3-(3,4-difluorophenyl)-5-(3-propan-2-yl-1,2,4-triazol-4-yl)-benzamide]
111 | 150 | CC(C)(C)c1nncn1-c1cc(C(=O)NC(C)(C)C2CC2)cc(-c2ccc(F)cc2)c1 [Example 12, 3-(3-tert-Butyl-1,2,4-triazol-4-yl)-N-(2-cyclopropylpropan-2-yl)-5-(4-fluorophenyl)-benzamide]
147 | 250 | CC(C)(NC(=O)c1cc(-c2ccc(F)cc2)cc(-n2cnnc2)c1)C(F)(F)F [Example 4, 3-(4-Fluorophenyl)-5-(1,2,4-triazol-4-yl)-N-(1,1,1-trifluoro-2-methylpropan-2-yl)-benzamide]
279 | 190 | CC(C)(C)NC(=O)c1cc(-c2ccc(F)cc2)cc(-n2cnnc2C(C)(C)C)c1 [Example 8, N-tert-Butyl-3-(3-tert-butyl-1,2,4-triazol-4-yl)-5-(4-fluorophenyl)-benzamide]
292.5 | 180 | CC(C)(C)NC(=O)c1cc(-c2ccc(Cl)cc2)cc(-n2cnnc2C(C)(C)C)c1 [Example 9, N-tert-Butyl-3-(3-tert-butyl-1,2,4-triazol-4-yl)-5-(4-chlorophenyl)-benzamide]
